Patent US20060079453A1, “Hla binding peptides and their uses” (priority 2002, published 2006)
Where two headings read alike, the source gives them in different places. No end group written: not given here.

Experiments:
Assay in all cases: biochemical
Type in all cases: binding
HLA-DR DRB4*0101 (DR53) = HLA-DR DRB4*0101 (DR53) (Homo sapiens, UniProt P01903+P13762, G164S); conditions: DRB4 *0101
HLA-DR DRB1*1101 (DR11) = HLA-DR DRB1*1101 (DR11) (Homo sapiens, UniProt P01903+P01911, A100R/A169T/A87E/I96F/K41T/L162R/M171V/P40S/Q125H/Q178H/Q39Y/Q99D/R42S/S66Y/T262R/V115G/W38E); conditions: DRB1 *1101
HLA-DR DRB1*1302 (DR13) = HLA-DR DRB1*1302 (DR13) (Homo sapiens, UniProt P01903+P01911, A100E/A169T/K41T/L162R/M171V/P40S/Q125H/Q178H/Q39Y/Q99D/R42S/S66N/T262R/V115G/W38E/Y61H); conditions: DRBI *1302
HLA-DR DRB1*0101 (DR1) = HLA-DR DRB1*0101 (DR1) (Homo sapiens, UniProt P01903+P01911, A100R/D57E/F55L/F60I/F76Y/I96L/L162R/M171V/P40L/Q125E/R42F/V115G/Y59C)
HLA-DR DRB1*1501 (DR15) = HLA-DR DRB1*1501 (DR15) (Homo sapiens, UniProt P01903+P01911); conditions: DRBI *1501
HLA-DR DRB5*0101 (DR51) = HLA-DR DRB5*0101 (DR51) (Homo sapiens, UniProt P01903+Q30154); conditions: DRB5 *0101
HLA-DR DRB1*0701 (DR7) = HLA-DR DRB1*0701 (DR7) (Homo sapiens, UniProt P01903+P01911, A100R/A102G/A103Q/D57E/D86V/E43K/F76Y/K127E/L162R/M171V/P40G/Q125H/Q99D/R33Q/R42Y/R54Q/S133A/S66F/T210M/V115G/Y107V/Y59L/Y89S)
HLA-DR DRB1*0301 (DR3) = HLA-DR DRB1*0301 (DR3) (Homo sapiens, UniProt P01903+P01911, A100K/A102G/A103R/A169T/F55Y/I96L/K41T/L162R/M171V/P40S/Q125H/Q178H/Q39Y/R42S/S66N/T106N/T262R/W38E/Y61H)
HLA-DR DRB1*0401 (DR4) = HLA-DR DRB1*0401 (DR4) (Homo sapiens, UniProt P01903+P01911, A100K/A169T/F76Y/I96L/K127E/L162R/M171V/N62H/P40V/Q125Y/R42H/S133A/S149N/S66Y/V115G/V209L/W38E)
HLA-DR DRB1*0901 (DR9) = HLA-DR DRB1*0901 (DR9) (Homo sapiens, UniProt P01903+P01911, A100R/A103E/D57H/D86V/F55Y/F60I/F76Y/I96F/K127E/L162R/M171V/P40D/Q125H/Q99R/R33Q/R42F/S133A/S66N/T210M/V115G/W38K/Y107V/Y59G/Y89S)
HLA-DR DRB1*0802 (DR8) = HLA-DR DRB1*0802 (DR8) (Homo sapiens, UniProt P01903+P01911, A100R/A103L/A169T/F76Y/H45Y/I96F/K41T/L162R/M171V/P40S/Q125H/Q178H/Q39Y/Q99D/R218S/R42G/S66Y/V115G/W38E)

HLA-DR DRB1*1101 (DR11), sequence (P01903 26-254 limits assumed, other chains not shown): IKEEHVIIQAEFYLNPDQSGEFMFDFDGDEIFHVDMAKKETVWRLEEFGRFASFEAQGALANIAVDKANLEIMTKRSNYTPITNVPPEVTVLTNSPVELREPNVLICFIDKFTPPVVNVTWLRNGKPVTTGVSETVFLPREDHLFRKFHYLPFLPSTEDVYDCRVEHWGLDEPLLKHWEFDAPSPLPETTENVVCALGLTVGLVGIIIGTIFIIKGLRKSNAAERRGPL
HLA-DR DRB1*0301 (DR3), sequence (P01903 26-254 limits assumed, other chains not shown): as above
HLA-DR DRB1*1302 (DR13), sequence (P01903 26-254 limits assumed, other chains not shown): as above

Compound	IC50 (HLA-DR DRB4*0101 (DR53)) [nM]	IC50 (HLA-DR DRB1*1302 (DR13)) [nM]	IC50 (HLA-DR DRB1*0101 (DR1); DRB1 *0101) [nM]	IC50 (HLA-DR DRB1*1501 (DR15)) [nM]	IC50 (HLA-DR DRB5*0101 (DR51)) [nM]	IC50 (HLA-DR DRB1*0701 (DR7); DRB1 *0701) [nM]	IC50 (HLA-DR DRB1*0401 (DR4); DRB1 *0401) [nM]	IC50 (HLA-DR DRB1*0802 (DR8)) [nM]	further results
CC[C@H](C)[C@H](N)C(=O)N[C@@H](CCCNC(=N)N)C(=O)N[C@H](C(=O)N[C@@H](CC(C)C)C(=O)N[C@@H](CCC(N)=O)C(=O)N[C@@H](CCC(=O)O)C(=O)N[C@@H](CC(C)C)C(=O)N[C@@H](CC(C)C)C(=O)N[C@@H](CCSC)C(=O)NCC(=O)N[C@@H](CO)C(=O)N[C@@H](Cc1ccccc1)C(=O)NCC(=O)N[C@H](C(=O)N[C@H](C(=O)O)C(C)C)[C@@H](C)CC)[C@@H](C)CC	17	1040	67	294	> 55100	2000	724	–	IC50 (HLA-DR DRB1*1101 (DR11)): 7980 nM; IC50 (HLA-DR DRB1*0301 (DR3)): 31800 nM; IC50 (HLA-DR DRB1*0901 (DR9); DRB1 *0901): 271 nM
VYDFAFADLTVVYRE	10700	> 13100	173	9450	–	7010	–	–	IC50 (HLA-DR DRB1*1101 (DR11)): > 18000 nM; IC50 (HLA-DR DRB1*0901 (DR9); DRB1 *0901): 155 nM
QKQLLTNHLINTPK	–	–	–	–	–	–	–	–	IC50 (HLA-DR DRB1*0701 (DR7); read-out: DRB1 *0701): 4410 nM; IC50 (HLA-DR DRB1*0802 (DR8); read-out: DRB1 *0802): 21000 nM
GGVLVNEILNHMK	–	–	–	–	–	–	–	–	IC50 (HLA-DR DRB1*0701 (DR7); read-out: DRB1 *0701): 29500 nM; IC50 (HLA-DR DRB1*0301 (DR3); read-out: DRB1 *0301): 700 nM; IC50 (HLA-DR DRB1*0401 (DR4); read-out: DRB1 *0401): 359 nM; IC50 (HLA-DR DRB1*0901 (DR9); read-out: DRB1 *0901): 54400 nM
TYSYSFDSLFSAVKN	–	–	–	–	–	–	–	–	IC50 (HLA-DR DRB1*0401 (DR4); read-out: DRB1 *0401): 73 nM; IC50 (HLA-DR DRB1*0802 (DR8); read-out: DRB1 *0802): 2260 nM
VQQLLMGALTVTCPL	204	574	10	–	7150	71	–	–	IC50 (HLA-DR DRB1*1101 (DR11)): 11100 nM; IC50 (HLA-DR DRB1*0301 (DR3)): 34300 nM; IC50 (HLA-DR DRB1*0901 (DR9); DRB1 *0901): 180 nM
LGFLQRSSNTQTQK	–	–	–	–	–	–	–	–	IC50 (HLA-DR DRB1*0701 (DR7); read-out: DRB1 *0701): 420 nM; IC50 (HLA-DR DRB1*0401 (DR4); read-out: DRB1 *0401): 18 nM; IC50 (HLA-DR DRB1*0901 (DR9); read-out: DRB1 *0901): 1340 nM
DHRQLQLSISSCLQQLSLLM	532	69	1360	67	63800	736	–	–	IC50 (HLA-DR DRB1*1101 (DR11)): > 98500 nM; IC50 (HLA-DR DRB1*0301 (DR3)): 42700 nM
SKIMKLPKLPISNGK	–	–	824	–	–	83700	6480	110	–
AVGLPSTPVHPIGYY	–	–	–	–	–	–	–	–	IC50 (HLA-DR DRB1*0101 (DR1); read-out: DRB1 *0101): 3.6 nM; IC50 (HLA-DR DRB1*0401 (DR4); read-out: DRB1 *0401): 4190 nM; IC50 (HLA-DR DRB1*0802 (DR8); read-out: DRB1 *0802): 4430 nM
RIVYRDGNPFAVCKV	–	122	–	81	–	–	19	–	IC50 (HLA-DR DRB1*0301 (DR3)): 144 nM; IC50 (HLA-DR DRB1*0901 (DR9); DRB1 *0901): 4960 nM
GVIYIMIISKKMMRK	157	–	10	173	46	–	22	137	–
LKELIKVGLPSFENL	110	–	99	361	41300	542	163	1490	–
ALLIIPPKIHISIEL	10	–	648	1820	7140	8.4	1740	12000	–
NHLINTPKIMPHHII	1630	–	–	560	8880	–	4800	1300	–
CC[C@H](C)[C@H](NC(=O)[C@H](CC(C)C)NC(=O)[C@H](CCCCN)NC(=O)[C@H](CCCCN)NC(=O)[C@@H](N)Cc1ccc(O)cc1)C(=O)N[C@@H](CCSC)C(=O)N[C@@H](Cc1ccc(O)cc1)C(=O)N[C@@H](CO)C(=O)N[C@@H](C)C(=O)N[C@@H](Cc1c[nH]cn1)C(=O)N[C@@H](CC(=O)O)C(=O)N[C@H](C(=O)N[C@H](C(=O)N[C@H](C(=O)N[C@@H](CO)C(=O)O)C(C)C)[C@@H](C)O)[C@@H](C)O	5.8	37	17	15	5480	–	–	–	IC50 (HLA-DR DRB1*1101 (DR11)): 208 nM; IC50 (HLA-DR DRB1*0301 (DR3)): 22700 nM; IC50 (HLA-DR DRB1*0901 (DR9); DRB1 *0901): 107 nM
KKNIIALLIIPPKIIA	–	–	–	–	–	–	–	–	IC50 (HLA-DR DRB1*0101 (DR1); read-out: DRB1 *0101): 13 nM; IC50 (HLA-DR DRB1*0701 (DR7); read-out: DRB1 *0701): 495 nM; IC50 (HLA-DR DRB1*0802 (DR8); read-out: DRB1 *0802): 157 nM
SMEYKKDFLITARKP	–	–	–	–	–	–	–	–	IC50 (HLA-DR DRB1*0701 (DR7); read-out: DRB1 *0701): 776 nM; IC50 (HLA-DR DRB1*0401 (DR4); read-out: DRB1 *0401): 24 nM; IC50 (HLA-DR DRB1*0802 (DR8); read-out: DRB1 *0802): 8900 nM
LYYLFNQHIKKELYH	1090	327	27	–	–	10200	–	1770	–
NVNLQKQLLTNHLIN [NVNLQKQLLTNHLIN]	354	–	96	4450	> 7210	555	2460	11200	–
